Test results as given in patent US20150133497A1, “GLYCINE REUPTAKE INHIBITOR AND USE THEREOF” (Beijing Medisan Technology Co., Ltd., priority 2011, published 2015).

Columns and labels:
NET = NET (Homo sapiens, UniProt P23975); experiment: Selectivity, NET; format: cell-based; conditions: read-out: Selectivity NET pEC50 (converted)
GlyT1 = target: T1, GlyT1 (Homo sapiens, UniProt P48067); experiment: Anti-glycine reuptake activity, GlyT1; format: cell-based; conditions: listed as head criterion > 6; mean of three experiments; read-out: GlyT1 pEC50 (converted)
T1 sequence (P48067 1-706): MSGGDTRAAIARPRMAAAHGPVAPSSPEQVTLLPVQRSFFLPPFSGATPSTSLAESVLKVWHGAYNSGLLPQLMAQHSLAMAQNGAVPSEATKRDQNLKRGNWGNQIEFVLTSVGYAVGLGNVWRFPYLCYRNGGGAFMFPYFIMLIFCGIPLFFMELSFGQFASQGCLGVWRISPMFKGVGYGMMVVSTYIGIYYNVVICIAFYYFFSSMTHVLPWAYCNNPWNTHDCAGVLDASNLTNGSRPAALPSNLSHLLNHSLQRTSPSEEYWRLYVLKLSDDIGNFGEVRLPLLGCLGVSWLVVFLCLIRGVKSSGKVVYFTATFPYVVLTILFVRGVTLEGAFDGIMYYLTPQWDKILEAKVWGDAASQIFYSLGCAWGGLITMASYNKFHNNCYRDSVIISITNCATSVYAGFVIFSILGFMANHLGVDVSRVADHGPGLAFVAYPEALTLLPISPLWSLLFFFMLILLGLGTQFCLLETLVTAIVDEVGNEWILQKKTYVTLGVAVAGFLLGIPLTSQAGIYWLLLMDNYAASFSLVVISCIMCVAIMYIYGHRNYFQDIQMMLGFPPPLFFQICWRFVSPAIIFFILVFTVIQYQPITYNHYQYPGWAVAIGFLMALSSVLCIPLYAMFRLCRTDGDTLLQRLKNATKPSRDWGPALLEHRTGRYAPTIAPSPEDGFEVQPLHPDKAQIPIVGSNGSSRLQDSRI
Excerpt: (§1) methods commonly used in the art were employed to determine the anti-glycine reuptake activity of the compound of the present invention. The experiment was repeated for three times and the mean value was taken.

Cmax in rat CSF = format: in vivo; conditions: sc, 10 mg/kg s.c.
Rat PK = format: in vivo
in vitro = in vitro ADME; conditions: microsomes
Excerpt: as §1

hERG = hERG (Homo sapiens, UniProt Q12809); experiment: hERG (pKi); format: binding
Sequence of hERG (Q12809 whole entry): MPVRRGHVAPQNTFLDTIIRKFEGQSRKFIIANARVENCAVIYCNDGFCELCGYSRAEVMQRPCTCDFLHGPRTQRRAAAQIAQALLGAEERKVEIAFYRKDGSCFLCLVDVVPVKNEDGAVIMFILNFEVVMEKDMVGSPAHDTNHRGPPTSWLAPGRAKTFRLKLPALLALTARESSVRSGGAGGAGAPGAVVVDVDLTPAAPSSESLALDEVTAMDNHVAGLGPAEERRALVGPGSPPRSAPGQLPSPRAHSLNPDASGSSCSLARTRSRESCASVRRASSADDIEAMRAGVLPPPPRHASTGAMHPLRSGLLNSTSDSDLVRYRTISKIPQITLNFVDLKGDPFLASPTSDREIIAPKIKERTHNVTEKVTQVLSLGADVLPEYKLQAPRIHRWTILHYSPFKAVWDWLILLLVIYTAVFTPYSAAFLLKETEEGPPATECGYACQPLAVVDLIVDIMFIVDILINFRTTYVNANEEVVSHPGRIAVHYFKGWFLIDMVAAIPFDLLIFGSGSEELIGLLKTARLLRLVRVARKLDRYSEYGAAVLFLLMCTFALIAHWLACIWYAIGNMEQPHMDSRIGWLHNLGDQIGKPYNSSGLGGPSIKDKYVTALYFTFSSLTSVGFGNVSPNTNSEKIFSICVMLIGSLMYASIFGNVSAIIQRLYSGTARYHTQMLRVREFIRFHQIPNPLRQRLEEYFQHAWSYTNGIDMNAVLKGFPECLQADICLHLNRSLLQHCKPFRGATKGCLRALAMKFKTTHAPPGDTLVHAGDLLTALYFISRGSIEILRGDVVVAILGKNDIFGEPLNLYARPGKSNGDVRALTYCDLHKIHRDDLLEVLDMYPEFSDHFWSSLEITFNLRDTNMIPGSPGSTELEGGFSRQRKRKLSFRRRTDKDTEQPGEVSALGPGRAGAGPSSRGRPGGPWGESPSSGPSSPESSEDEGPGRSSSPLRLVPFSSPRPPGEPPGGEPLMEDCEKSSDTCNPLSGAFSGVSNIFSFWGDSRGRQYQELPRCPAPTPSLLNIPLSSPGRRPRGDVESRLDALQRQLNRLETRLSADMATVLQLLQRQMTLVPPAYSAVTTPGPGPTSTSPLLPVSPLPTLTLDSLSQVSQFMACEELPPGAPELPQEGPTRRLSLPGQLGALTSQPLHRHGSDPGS

G1yT2 = target: T2, G1yT2 (Homo sapiens, UniProt Q9Y345); experiment: Selectivity vs GlyT2; format: cell-based; conditions: listed as head criterion >10 × vs G1yT2
T2 sequence (Q9Y345 1-797): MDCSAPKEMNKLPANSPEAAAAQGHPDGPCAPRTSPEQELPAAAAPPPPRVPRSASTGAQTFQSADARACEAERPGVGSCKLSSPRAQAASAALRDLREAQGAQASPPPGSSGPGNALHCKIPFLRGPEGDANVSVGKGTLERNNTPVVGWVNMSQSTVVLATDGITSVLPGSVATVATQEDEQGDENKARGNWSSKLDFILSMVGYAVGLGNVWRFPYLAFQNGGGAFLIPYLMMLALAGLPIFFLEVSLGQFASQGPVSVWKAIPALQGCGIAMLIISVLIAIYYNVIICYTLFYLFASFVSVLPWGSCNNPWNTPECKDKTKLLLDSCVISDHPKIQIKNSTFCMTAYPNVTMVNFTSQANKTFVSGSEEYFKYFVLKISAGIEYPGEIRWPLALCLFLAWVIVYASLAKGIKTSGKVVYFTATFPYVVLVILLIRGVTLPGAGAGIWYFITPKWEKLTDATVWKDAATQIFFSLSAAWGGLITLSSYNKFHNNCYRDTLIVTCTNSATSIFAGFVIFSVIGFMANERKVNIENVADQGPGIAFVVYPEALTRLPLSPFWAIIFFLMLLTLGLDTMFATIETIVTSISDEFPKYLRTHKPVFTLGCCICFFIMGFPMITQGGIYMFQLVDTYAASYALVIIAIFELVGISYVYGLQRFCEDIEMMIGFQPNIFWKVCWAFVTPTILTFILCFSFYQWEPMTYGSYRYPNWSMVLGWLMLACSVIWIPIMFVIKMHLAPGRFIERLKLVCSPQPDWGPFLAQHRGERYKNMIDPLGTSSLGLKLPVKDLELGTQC
Excerpt: as §1

[1] = Measured Clint, R-heps (hepatocytes); format: in vitro ADME, rat
[2] = tested on: high-activity behaviors in rats induced by PCP; experiment: Effect on high-activity behaviors in rats induced by PCP; format: in vivo, Wistar rats; conditions: for inhibition of high-activity behaviors in rats induced by PCP: Co. 1 5, 10 and 30 mg/kg i.p., Olanzepine 10 mg/kg i.p., PCP 5.0 mg/kg s.c., P<0.01 vs PCP group
Description: (§2) Animals used for experiments were adult male Wistar rats weighing 180˜250 g, housed in group of 6/cages, regulated with a 12/12 hour light/dark cycle, maintained at a constant temperature of 23±1° C. and a humidity of 50˜60% and allowed ad libitum access to rodent chow and water. After animals were purchased from the Experimental Animal Center, an adaptive housing was performed for a week, all the animals were randomly divided into three groups:
Group 1: negative control group, intraperitoneally injected with 1% DMSO in physiological saline (10.0 ml/kg, i.p.);
Group 2: experimental drug group, the rats were intraperitoneally injected respectively with different doses of test compound Co. 1: 5.0, 10 and 30 mg/kg, i.p., the drug was formulated in 1% DMSO in physiological saline.
Group 3: positive drug control group, the rats were intraperitoneally injected with Olanzepine (10 mg/kg, i.p., the drug was formulated in 1% DMSO in physiological saline)
The experiment employed Shanghai Jiliang animal behavior video analysis system, wherein the experimental environment was kept absolutely silent, when grabbing animals and administrating, movements were gentle to minimize adverse reactions of mental condition and emotion brought by external stimulus. The rats were moved from the animal room to a quiet lab and adapted for at least two hours. Subcutaneous injection of PCP (5.0 mg/kg, s.c.), or 1% DMSO in physiological saline as control, was administrated. 30 minutes later, the animals were intraperitoneally injected with the test compound, or 1% DMSO in physiological saline as control. The rats were placed in a spontaneous activity box, which was placed in an absolutely silent environment. The spontaneous activity box was connected to a recording apparatus and the activity conditions of rats were recorded for 30-60 minutes. The effect of drug or control on spontaneous activity in […] was determined.

[3] = tested on: high-activity behaviors in rats induced by Amphetamine; experiment: Effect on high-activity behaviors in rats induced by Amphetamine; format: in vivo, Wistar rats; conditions: for inhibition of high-activity behaviors in rats induced by Amphetamine: Co. 1 5, 10 and 30 mg/kg i.p., Olanzepine 10 mg/kg i.p., Amphetamine 1.0 mg/kg s.c., P<0.01 vs Amphetamine group
Description: as §2
(§3) Group one: negative control group, intraperitoneally injected with 1% DMSO in physiological saline (10.0 ml/kg, i.p.);
Group two: experimental drug group, the rats were intraperitoneally injected respectively with different amounts of test compound Co. 1: 5, 10 and 30 mg/kg, i.p., the drug was formulated in 1% DMSO in physiological saline.
Group three: positive drug control group, the rats were intraperitoneally injected with Olanzepine (10 mg/kg, i.p., the drug was formulated in 1% DMSO in physiological saline)
The experiment employed Shanghai Jiliang animal behavior video analysis system, wherein the experimental environment was kept absolutely silent, when grabbing animals and administrating, movements were gentle to minimize adverse reactions of mental condition and emotion brought by external stimulus. The rats were moved from the animal room to a quiet lab and adapted for at least two hours. Subcutaneous injection of Amphetamine (1.0 mg/kg, s.c.), or 1% DMSO in physiological saline as control, was administrated. 30 minutes later, the animals were orally administrated of the compound, or physiological saline as control. The rats were placed in a spontaneous activity box, which was placed in an absolutely silent environment. The spontaneous activity box was connected to a recording apparatus and the activity conditions of rats were recorded for 30-60 minutes. The effect of drug or control on spontaneous activity in rats was determined.

[4] = tested on: spontaneous activity in rats; experiment: Effect of test compound on spontaneous activity in rats (LMA); format: in vivo, Wistar rats; conditions: 5.0, 10 and 30 mg/kg i.p.; 60 minutes after administration; recorded 30-60 minutes; P>0.05, Dunnett's test
Description: as §2, with “in groups” for “in group”, “into two” for “into three”
as §3
Group two: experimental drug group, the rats were intraperitoneally injected respectively with different doses of test compound Co. 1: 5.0, 10 and 30 mg/kg, i.p., the drug was formulated in 1% DMSO in physiological saline.
The experiment employed Shanghai Jiliang animal behavior video analysis system, wherein the experimental environment was kept absolutely silent, when grabbing animals and administrating, movements were gentle to minimize adverse reactions of mental condition and emotion brought by external stimulus. […] The spontaneous activity box was connected to a recording apparatus and the activity conditions of rats were recorded for 30-60 minutes. The effect of drug or control on spontaneous activity in rats was determined.

Sequence of NET (P23975 whole entry): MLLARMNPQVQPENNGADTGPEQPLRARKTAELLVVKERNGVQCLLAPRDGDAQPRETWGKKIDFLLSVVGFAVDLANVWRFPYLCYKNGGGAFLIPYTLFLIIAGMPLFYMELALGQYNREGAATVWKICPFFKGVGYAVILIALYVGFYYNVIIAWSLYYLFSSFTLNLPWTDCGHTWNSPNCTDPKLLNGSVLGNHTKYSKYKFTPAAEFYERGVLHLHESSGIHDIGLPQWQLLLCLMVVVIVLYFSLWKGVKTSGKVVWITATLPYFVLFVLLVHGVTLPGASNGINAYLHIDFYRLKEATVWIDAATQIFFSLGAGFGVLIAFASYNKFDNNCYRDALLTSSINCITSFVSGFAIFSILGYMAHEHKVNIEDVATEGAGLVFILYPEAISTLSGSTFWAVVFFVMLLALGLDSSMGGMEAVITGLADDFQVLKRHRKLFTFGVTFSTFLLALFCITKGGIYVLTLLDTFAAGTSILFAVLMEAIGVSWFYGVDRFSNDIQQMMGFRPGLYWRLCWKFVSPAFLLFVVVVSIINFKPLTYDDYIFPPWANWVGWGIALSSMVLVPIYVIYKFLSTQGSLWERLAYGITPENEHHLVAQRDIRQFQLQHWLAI

| Structure (SMILES) | EC50 (NET) [nM] | EC50 (GlyT1) [nM] | Cmax (Cmax in rat CSF) [nM] | Rat PK C1 (Rat PK) [mL/min/kg] | Rat PK P (Rat PK) [%] | microsomal CLint (in vitro; human) [µL/min/mg] | microsomal CLint (in vitro; rat) [µL/min/mg] | Ki (hERG) [nM] | G1yT2 effect at 10-5 M (G1yT2) [% @ 10-5 M] | Measured Clint R-heps [1] | inhibition of high-activity behaviors in rats induced by PCP [2] | inhibition of high-activity behaviors in rats induced by Amphetamine [3] | inhibitory effect on PCP-induced high-activity behaviors compared with the positive drug Olanzepine ([2]; P<0.05, Dunnett's test, compared with the Olanzepine/PCP group) | inhibitory effect on Amphetamine-induced high-activity behaviors compared with the positive drug Olanzepine ([3]; P<0.05, Dunnett's test, compared with the Olanzepine/Amphetamine group) | effect on spontaneous activity in rats [4] |
| --- | --- | --- | --- | --- | --- | --- | --- | --- | --- | --- | --- | --- | --- | --- | --- |
| CCC(C)[C@@H](CN1CCCCC1)NC(=O)c1cc(C)nc(-c2cc(C)ccc2C(F)(F)F)c1 (some centres unmarked) [Co. 2] | 316 | 63.1 | 60 | 52 | < 1 | 135 | 81 | 12600 | 14 | R-heps 15 ul/ml/106 cells |  |  |  |  |  |
| Cc1cc2c(s1)Nc1ccccc1N=C2N1CCN(C)CC1 [Olanzepine, reference compound] |  |  |  |  |  |  |  |  |  |  | significantly inhibited | significantly inhibited |  |  |  |
| Cc1cc(C(=O)N[C@@H](CN2CCCCC2)C(C)C)cc(-c2ccccc2C(F)(F)F)n1 [Co. 1] |  |  |  |  |  |  |  |  |  |  | significantly inhibited | significantly inhibited | stronger | stronger | no significant effect |
